Several values for one entry are separate records, joined by “and”; a condition that tells them apart may be missing. Identical values can stand only once.
Tested on: TWEAK-Fn14 signalling pathway, BRV5 cells
Test: Cell-based screening of individual peptides, gene expression microarray in TWEAK-stimulated BRV5 cells
Design: species or system human
Conditions: 6 h; for regulation of probe genes by individual peptides: BRV5 + TWEAK 25 ng/mL, peptides 450 µM; for BIRC2 mRNA expression (normalized to NARS2) / HSP90B1 mRNA expression (normalized to NARS2) / IL6 mRNA expression (normalized to NARS2) / JUN mRNA expression (normalized to NARS2) / MAP4K4 mRNA expression (normalized to NARS2) / MAPK14 mRNA expression (normalized to NARS2) / NFKB2 mRNA expression (normalized to NARS2) / TNFRSF12A mRNA expression (normalized to NARS2) / TRAF2 mRNA expression (normalized to NARS2) / BIRC2 expression Z-Score / HSP90B1 expression Z-Score / IL6 expression Z-Score / JUN expression Z-Score / MAP4K4 expression Z-Score / MAPK14 expression Z-Score / NFKB2 expression Z-Score / TNFRSF12A expression Z-Score / TRAF2 expression Z-Score: individual peptides, BRV5 + TWEAK; for BIRC2 mRNA expression (normalized to NARS2) / HSP90B1 mRNA expression (normalized to NARS2) / IL6 mRNA expression (normalized to NARS2) / JUN mRNA expression (normalized to NARS2) / MAP4K4 mRNA expression (normalized to NARS2) / MAPK14 mRNA expression (normalized to NARS2) / NFKB2 mRNA expression (normalized to NARS2) / TNFRSF12A mRNA expression (normalized to NARS2) / TRAF2 mRNA expression (normalized to NARS2): 450 µM; for BIRC2 expression Z-Score / HSP90B1 expression Z-Score / IL6 expression Z-Score / JUN expression Z-Score / MAP4K4 expression Z-Score / MAPK14 expression Z-Score / NFKB2 expression Z-Score / TNFRSF12A expression Z-Score / TRAF2 expression Z-Score: normalized to NARS2
Description: Pool 1 and 5 were therefore deconstructed to assess the effect of individual peptides and their activity on same cell-based screening. Pools 1 and 5 were composed of peptides 45, 46, 42, 3, 49, 11, and 13; and of peptides 1, 9, 30, 35, 41, 43, 7, and 14, respectively. As before, and shown in Figure 4B, the level of expression of probe genes on TWEAK-stimulated (T) BRV5 cells is overall higher than on non-stimulated (NT) one. […] The structural model of peptides 43, 30, 35 and 49 bound to TWEAK can be seen in Figure 5 and Supplementary Materials Figures S4–S6, respectively.
Three different cell lines were used in this study: BRV5, MDA-MB 435 (435-P), and HT29. The BRV5 is a highly metastatic brain cell line, obtained in one of our laboratories by primary culture from a brain of a nude mouse inoculated with human 435-Br1 brain metastatic cells, as previously described and used as a model to test the peptides in cell cultures. […] The triple negative 435-P cell line is a useful human breast cancer model that expresses both epithelial and melanocytic markers, and was included as the parental cell from which 435-Br1 metastatic variant was initially originated (both cell lines kindly provided by Dr Fabra at IDIBELL Institute, Hospitalet de Llobregat, Spain). Finally, HT29 human colon carcinoma cells obtained from the European Type Culture Collection (ECACC 91072201) were used as a positive control of TWEAK dependent Fn14 over-expressing cells to evaluate TWEAK-Fn14 axis of brain metastatic variants.
Appropriate cell culture conditions were established as the controls needed in the expression of genes with and without peptides and with and without TWEAK activation, both as pools and individually (see Supplementary Materials Figure S2). The protocol started with the seeding of 125,000 cells/well in 500 µL of culture media supplemented with 10% fetal bovine serum (CM+FBS10%) in 24-well dishes for 24 h before removing FBS (CM-FBS). After overnight starvation in CM-FBS culture, different peptide treatment conditions (at final concentration of 450 µM) were established in the presence or absence of TWEAK (25 ng/mL final concentration) (Peprotech EC, Ltd., London, UK). Some cells were treated with peptides at a single, unique, initial dose (time 0) while other were treated with repeated doses to account for the effect cell-culture degradation. These include a repeated treatment every hour (i.e., […]), every two hours (time 0, 2, and 4) and every three hours (time 0 and 3)—see Supplementary Materials Figure S2 for diagrammatic depiction. At time 6 (after six hours) cells were lysed and RNA extracted for transcriptomic analyses (see next). Cell were culture for six hours as this was the time needed to achieve the highest upregulation of the TWEAK-Fn14 axis upon TWEAK treatment as shown in previous time-course RT-PCR experiments (see Figure 2).
RNA from cells was extracted 6 h after treatments by direct lysis on the well. The RNeasy Micro kit (Qiagen, Hilden, Germany) was used to isolate total RNA from cell lysate following manufacturer’s protocols including an additional step of digestion with DNase I (Qiagen, Hilden, Germany). Total RNA concentration was measured in a NanoDrop 1000 spectrophotometer (Thermo Scientific, Waltham, MA, USA). The RNA extracted from treated and untreated cells (see above) was used as a proxy for gene expression.
The quantitative RT-PCR was performed using Fluidigm Dynamic Array FlexSix array with the specific primers for gene expression (Delta Genes Assays, Wet lab tested on Dynamic Array IFC) designed to RefSeq for detection by pPCR EvaGreen assay (Dynamic Array FlexSix, Fluidigm Corporation). Each Flex Six IFC has a total of six independent partitions. Each partition has a 12 × 12 format (12 assay inlets and 12 sample inlets) and will be run independently as a separate experimental run. […]

Substance	BIRC2 mRNA expression (normalized to NARS2) (mean of replicate columns)	HSP90B1 mRNA expression (normalized to NARS2) (mean of replicate columns)	IL6 mRNA expression (normalized to NARS2) (mean of replicate columns)	JUN mRNA expression (normalized to NARS2) (mean of replicate columns)	MAP4K4 mRNA expression (normalized to NARS2) (mean of replicate columns)	MAPK14 mRNA expression (normalized to NARS2) (mean of replicate columns)	NFKB2 mRNA expression (normalized to NARS2) (mean of replicate columns)	TNFRSF12A mRNA expression (normalized to NARS2) (mean of replicate columns)	TRAF2 mRNA expression (normalized to NARS2) (mean of replicate columns)	BIRC2 mRNA expression (normalized to NARS2) (replicate column 1)	HSP90B1 mRNA expression (normalized to NARS2) (replicate column 1)	IL6 mRNA expression (normalized to NARS2) (replicate column 1)	JUN mRNA expression (normalized to NARS2) (replicate column 1)	MAP4K4 mRNA expression (normalized to NARS2) (replicate column 1)	MAPK14 mRNA expression (normalized to NARS2) (replicate column 1)	NFKB2 mRNA expression (normalized to NARS2) (replicate column 1)	TNFRSF12A mRNA expression (normalized to NARS2) (replicate column 1)	TRAF2 mRNA expression (normalized to NARS2) (replicate column 1)	BIRC2 mRNA expression (normalized to NARS2) (replicate column 2)	HSP90B1 mRNA expression (normalized to NARS2) (replicate column 2)	other results
11: SGVAYQETT [Peptide 11]	0.6438	2.54	0.001558	0.1006	0.1986	0.2184	0.047	0.01869	0.01037	0.6157	2.376	0.001178	0.09818	0.2001	0.2179	0.04834	0.01871	0.01036	0.6719	2.704	regulation of probe genes by individual peptides: induced a higher level of expression of the gene; IL6 mRNA expression (normalized to NARS2) (replicate column 2): 0.001938; JUN mRNA expression (normalized to NARS2) (replicate column 2): 0.1029; MAP4K4 mRNA expression (normalized to NARS2) (replicate column 2): 0.1972; MAPK14 mRNA expression (normalized to NARS2) (replicate column 2): 0.219; NFKB2 mRNA expression (normalized to NARS2) (replicate column 2): 0.04567; TNFRSF12A mRNA expression (normalized to NARS2) (replicate column 2): 0.01867; TRAF2 mRNA expression (normalized to NARS2) (replicate column 2): 0.01038; BIRC2 expression Z-Score (listed as P11): 0.5906; HSP90B1 expression Z-Score (listed as P11): 0.5337; IL6 expression Z-Score (listed as P11): -0.2862; JUN expression Z-Score (listed as P11): 0.0366 and 0.03662; MAP4K4 expression Z-Score (listed as P11): 0.3403; MAPK14 expression Z-Score (listed as P11): 0.3151; NFKB2 expression Z-Score (listed as P11): 0.622; TNFRSF12A expression Z-Score (listed as P11): -0.2085; TRAF2 expression Z-Score (listed as P11): -0.4411
13: YSGYFGGFY [Peptide 13]	0.4307	2.183	0.005226	0.4257	0.2531	0.2388	0.05228	0.02853	0.02474	0.4177	2.2352	0.005457	0.419	0.2593	0.2431	0.05087	0.02856	0.02503	0.4436	2.131	regulation of probe genes by individual peptides: to some extent, 13 induced a higher level of expression of the gene; IL6 mRNA expression (normalized to NARS2) (replicate column 2): 0.004995; JUN mRNA expression (normalized to NARS2) (replicate column 2): 0.4325; MAP4K4 mRNA expression (normalized to NARS2) (replicate column 2): 0.2468; MAPK14 mRNA expression (normalized to NARS2) (replicate column 2): 0.2344; NFKB2 mRNA expression (normalized to NARS2) (replicate column 2): 0.05368; TNFRSF12A mRNA expression (normalized to NARS2) (replicate column 2): 0.0285; TRAF2 mRNA expression (normalized to NARS2) (replicate column 2): 0.02446; BIRC2 expression Z-Score (listed as P13): -0.8852; HSP90B1 expression Z-Score (listed as P13): -0.101; IL6 expression Z-Score (listed as P13): 2.8881 and 2.888; JUN expression Z-Score (listed as P13): 3.7769 and 3.777; MAP4K4 expression Z-Score (listed as P13): 1.699; MAPK14 expression Z-Score (listed as P13): 0.6701; NFKB2 expression Z-Score (listed as P13): 1.124; TNFRSF12A expression Z-Score (listed as P13): 0.91; TRAF2 expression Z-Score (listed as P13): 0.255
46: TGYAENV [Peptide 46]	0.5415	2.314	0.00187	0.08801	0.2105	0.2302	0.05417	0.01829	0.01616	0.5372	2.32	0.00168	0.08305	0.1965	0.2456	0.05593	0.0189	0.01641	0.5458	2.3087	IL6 mRNA expression (normalized to NARS2) (replicate column 2): 0.002059; JUN mRNA expression (normalized to NARS2) (replicate column 2): 0.09296; MAP4K4 mRNA expression (normalized to NARS2) (replicate column 2): 0.2245; MAPK14 mRNA expression (normalized to NARS2) (replicate column 2): 0.2147; NFKB2 mRNA expression (normalized to NARS2) (replicate column 2): 0.05241; TNFRSF12A mRNA expression (normalized to NARS2) (replicate column 2): 0.01767; TRAF2 mRNA expression (normalized to NARS2) (replicate column 2): 0.01592; BIRC2 expression Z-Score (listed as P46): -0.118; HSP90B1 expression Z-Score (listed as P46): 0.1322; IL6 expression Z-Score (listed as P46): -0.0166 and -0.01658; JUN expression Z-Score (listed as P46): -0.1078; MAP4K4 expression Z-Score (listed as P46): 0.6365; MAPK14 expression Z-Score (listed as P46): 0.5199; NFKB2 expression Z-Score (listed as P46): 1.3042 and 1.304; TNFRSF12A expression Z-Score (listed as P46): -0.2543; TRAF2 expression Z-Score (listed as P46): -0.1604
SGVSTAQLD [Peptide 4]	0.6267	2.423	0.001966	0.1025	0.2128	0.1993	0.04458	0.01499	0.01397	0.6069	2.308	0.001514	0.09341	0.1972	0.1927	0.04237	0.01676	0.01481	0.6465	2.538	regulation of probe genes by individual peptides: induced a higher level of expression of the gene; IL6 mRNA expression (normalized to NARS2) (replicate column 2): 0.002418; JUN mRNA expression (normalized to NARS2) (replicate column 2): 0.1116; MAP4K4 mRNA expression (normalized to NARS2) (replicate column 2): 0.2284; MAPK14 mRNA expression (normalized to NARS2) (replicate column 2): 0.2059; NFKB2 mRNA expression (normalized to NARS2) (replicate column 2): 0.04678; TNFRSF12A mRNA expression (normalized to NARS2) (replicate column 2): 0.01322; TRAF2 mRNA expression (normalized to NARS2) (replicate column 2): 0.01313; BIRC2 expression Z-Score (listed as P4): 0.4721; HSP90B1 expression Z-Score (listed as P4): 0.3256; IL6 expression Z-Score (listed as P4): 0.0669 and 0.06688; JUN expression Z-Score (listed as P4): 0.0589 and 0.05892; MAP4K4 expression Z-Score (listed as P4): 0.6937; MAPK14 expression Z-Score (listed as P4): -0.0192 and -0.01918; NFKB2 expression Z-Score (listed as P4): 0.3908; TNFRSF12A expression Z-Score (listed as P4): -0.6289; TRAF2 expression Z-Score (listed as P4): -0.2666

From PMC7866087, “Evaluation of Computationally Designed Peptides against TWEAK, a Cytokine of the Tumour Necrosis Factor Ligand Family” (International Journal of Molecular Sciences, 2021)
